“Also recorded” adds a separate entry of the source. In the oligonucleotide strings, read from the 5' end, every base follows the letter of its sugar. An asterisk marks phosphorothioate; unmarked linkages are phosphodiester. Other units and linkages are bracketed, terminal groups are in braces. A string of capitals states the bases alone. d = 2'-deoxy (DNA)
Key:
Assay type in all cases: cell-based, human
[1] = system: antigen-specific Treg102 and Treg164 cells; assay: TLR ligand assays: reversal of Treg suppression of naive CD4+ T cell proliferation; conditions: Treg102, Treg164 or naturally occurring CD4+CD25+ Treg cells (FIG. 4A-B)
Method: Näive CD4 T+cells were purified from PBMCs by using microbeads (Miltenvi Biotec). Näive CD4^+ T cells ([…]) were cultured with regulatory T cells at a ratio of 10:1 in OKT3 (2 ug/ml)-coated, U bottomed 96-well plates containing the following ligands: LPS (100 ng/ml), imiquimod (10 μg/ml), loxoribine (500 μM), poly(I:C) (25 μg/ml), ssRNA40/LyoVec (3 μg/ml), ssRNA33/LyoVec (3 μg/ml), pam3CSK4 (200 ng/ml) and flagellin (10 μg/ml) were purchased from Invivogene (San Diego, Calif.), while CpG-A (3 μg/ml), CpG-B (3 μg/ml) and Poly-G oligonucleotides (3 μg/ml) were synthesized in Integrated DNA Technologies, Inc (Coralville, Iowa). Functional assays were identical to those described above.
If the TLR8-MyD88-IRAK4 signaling pathway is necessary and sufficient for direct reversal of the suppressive function of Treg cells, it should be possible to produce that effect with natural ligands for human TLR8. For FIG. 4A-B, naive CD4^+ T cells were mixed with Treg102, Treg164 or naturally occurring CD4^+ CD25^+ Treg cells in anti-CD3 antibody-coated wells in the presence of different TLR ligands. Data are presented as means±SD and represent results from three independent experiments.

CD4+ Treg cells = assay: Pretreatment of Treg cells, then proliferation assay with naive CD4+ T cells (without DCs); conditions: for reversal of suppressive function of CD4+ Treg cells after pretreatment: Treg cells pretreated 3 days, washed, then mixed with naive CD4+ T cells
Method: C. Pretreatment of Treg cells: 1×10^6 Treg cells were cultured in medium containing CpG-A (3 ug/ml), CpG-B (3 ug/ml), LPS (100 ng/ml), TNF.-α (20 ng/ml), IFN-α (100 ng/ml) or IL-6 (100 ng/ml) for 3 days. After three washes, the pretreated Treg cells were cultured with näive CD4^+ T cells in anti-CD3 mAb-coated plates (without DCs) to determine their suppressive function. After 56 h of culture, [3H]thymidine was added at a final concentration of 1 uCi/well, and cultured for an additional 16 h. The incorporation of [^3H]thymidine was measured with a liquid scintillation counter.
To exclude the possibility that the purified naive CD4^+ T cells might have been contaminated with a small number of monocytes or DCs, cultured CD4^+ Treg cells (100% purity) were pretreated with CpG-A (SEQ ID NO: 1) for 3 days. After three washes, the pretreated CD4^+ Treg cells were mixed with naive CD4^+ T cells in anti-CD3 antibody-coated plates to evaluate their ability to suppress the proliferation of naive CD4^+ T cells.
To determine whether the CpG motif in CpG A confers the ability to reverse the suppressive function of CD4^+ Treg cells, CD4^+ Treg cell lines were pretreated for 3 days with CpG-A (SEQ ID NO: 1), non-CpG-A (CG changed to GC in CpG-A; SEQ ID NO: 3), CpG B (SEQ ID NO: 2) or non-CpG-B (CG changed to GC in CpG-B; SEQ ID NO: 4), and used them in proliferation assays following extensive washes.
Treg cells were pretreated with Poly-G2 (SEQ ID NO: 15) in different concentrations of chloroquine to examine whether acidification is required for the function of guanosine containing oligonucleotides. After extensive washes, the pretreated Treg cells were used for functional assays.

[2] = system: CD4+ Treg cells (Treg102, Treg164); assay: Proliferation assay without DCs: Treg suppression of naive CD4+ T cell proliferation, anti-CD3-coated plates; conditions: absence of DCs; anti-CD3-coated plates; oligonucleotides 3 ug/ml in medium
From the text: Establishing Treg cell lines and purifying natural CD4^+ CD25^+ Treg cells CD4^+ Treg clones were established from CD4^+ tumor-infiltrating lymphocytes (TIL102 and TIL164) and maintained in RPMI 1640 medium containing 10% human AB serum and recombinant IL-2 (300 IU/ml) using methods well known in the art (See, e.g., H. Y. Wang et al., Immunity 20, 107-118 (2004)). Treg clones derived from TIL102 or TIL164 cells were pooled and designated Treg102 or Treg164. Naturally occurring CD4^+ CD25^+ Treg cells were obtained by sorting CD4^+ T cell populations from fresh PBMCs after staining with anti-CD4 and anti-CD25 antibodies. To obtain optimal expansion, the OKT3 expansion method was performed using methods well known in the art (See, e.g., H. Y. Wang et al., Immunity 20, 107-118 (2004)). T cell clones were maintained at a low IL-2 concentration (300 IU/ml). Melanoma cell lines and EBV-transformed B-cell lines used in this study were cultured in RPMI 1640 medium containing 10% FCS. Human embryonic kidney (HEK) 293 and Epstein-Barr virus (EBV)-transformed B cell lines were maintained in RPMI 1640 with 10% fetal calf serum (FCS).
B. Proliferation assay without DCs: 1×10^5 näive CD4 T cells were cultured with regulatory T cells at different ratios (1: 0.2, 1:0.1 and 1:0.05) in anti-CD3 mAb-coated (2 ug/ml) 96-well plates in the presence or absence of the following TLR ligands or cytokines: CpG-A (3 ug/ml), CpG-B (3 ug/ml), LPS (100 ng/ml), TNF.-α (20 ng/ml), IFN-α (100 ng/ml), or IL-6 (100 ng/ml). After 56 h of culture, [3H]thymidine was added at a final concentration of 1 uCi/well, followed by an additional 16 h of culture. The incorporation of [^3H]thymidine was measured with a liquid scintillation counter.
Näive CD4^+ T cell proliferation experiments were performed similar to those in FIG. 1A, but in the absence of DCs. […] The reversal effect of CpG-A (SEQ ID NO: 1) contrasts with the failure of CpG-B (SEQ ID NO: 2), LPS, TNF-α, IL-6 or IFN-α to block the suppressive activity of CD4^+ Treg cells against naive CD4^+ T cells (FIG. 1B).
To further define the CpG-A (SEQ ID NO: 1) sequences responsible for the observed reversal effect, CpG-NG (SEQ ID NO: 5) and Poly-G10 (SEQ ID NO: 6), were tested for their ability to reverse the suppressive function of Treg cells. Naive CD4^+ T cells were mixed with CD4^+ Treg cells in anti-CD3 antibody-coated 96-wells with 200 μl of medium containing CpG-NG (SEQ ID NO: 5), CpG-A (SEQ ID NO: 1) or Poly-G10 (SEQ ID NO: 6). The proliferation assay was conducted as described in FIG. 1. […] For the experiments shown in FIG. 2B, naive CD4^+ T cells were mixed with CD4^+ Treg cells in anti-CD3 antibody-coated 96-wells with 200 μl of medium containing Poly-A10 (SEQ ID NO: 7), Poly-T10 (SEQ ID NO: 9) or Poly-C10 (SEQ ID NO: 8), while the Poly-G10 (SEQ ID NO: 6) oligonucleotides served as a positive control.
A series of oligonucleotides with decreasing numbers of guanosine nucleosides was constructed to determine the minimal number required for the reversal effect. For the experiments in FIG. 2C, CD4^+ T cells were mixed with CD4^+ Treg cells in anti-CD3 antibody-coated 96-wells containing medium with protected phosphorothioate linked guanosine nucleoside containing oligonucleotides of various lengths, while the unprotected five guanosines (SEQ ID NO: 10) served as a control.

With poly(I:C) the “restoration of proliferation of naive CD4+ T cells in the presence of Treg cells” value (“restoration” for short) [1] was “failed to restore the proliferation of naive CD4^+ T cells”.

In the case of `C=CCn1c(=O)n([C@@H]2O[C@H](CO)[C@@H](O)[C@H]2O)c2nc(N)[nH]c(=O)c21` [loxoribine], the “restoration” value [1] is reported as “failed to restore the proliferation of naive CD4^+ T cells”.

With “Poly-G2: guanosine containing oligonucleotide (DNA AAGGA; listed as DNA, chemistry not given here)” the “reversal effect with Treg cells pretreated in different concentrations of chloroquine” value (CD4+ Treg cells; pretreatment together with chloroquine) was “decreased with increasing concentrations of chloroquine”.

In the case of “A4G1: a single guanosine plus other nucleotides with protected phosphorothioate linkages (DNA dA*dA*dG*dA*dA)”, the “reversal of Treg cell-mediated suppression of naive CD4+ T cell proliferation” value (“reversal … of naive CD4+ T cell proliferation” below) [2] is reported as “found to reverse the suppressive activity of Treg cells”.

“T4G1: a single guanosine plus other nucleotides with protected phosphorothioate linkages (DNA dT*dT*dG*dT*dT)” was tested, and the “reversal … of naive CD4+ T cell proliferation” value [2] was “found to reverse the suppressive activity of Treg cells”.

In the case of “CpG-B: CpG-B oligonucleotide, ligand for TLR9 (DNA GGGGGAGCATGCTGCGGGGG; listed as DNA, chemistry not given here)”, the “restoration” value [1] is reported as “failed to restore the proliferation of naive CD4^+ T cells”, the “reversal of suppressive function of CD4+ Treg cells after pretreatment” value (CD4+ Treg cells) is reported as “lacked any discernible effect” and the “reversal … of naive CD4+ T cell proliferation” value [2] is reported as “failure”.

“CpG-NG: oligonucleotide derived from CpG-A, tested to define the sequences responsible for reversal (DNA AAAAGACGATCGTCAAAAAA; listed as DNA, chemistry not given here)” was tested, and the “reversal … of naive CD4+ T cell proliferation” value [2] was “Treg suppression reversal was lost”.

With “Poly-A10: Poly-A oligonucleotide with the same protected phosphorothioate backbone (DNA dA*dA*dA*dA*dA*dA*dA*dA*dA*dA)” the “reversal … of naive CD4+ T cell proliferation” value [2] was “failed to reverse the suppressive function of Treg cells; also recorded: lacked the ability to reverse the suppressive activity of Treg cells”.

In the case of TNF-α, the “reversal … of naive CD4+ T cell proliferation” value [2] is reported as “failure”.

In the case of “non-CpG-B: CG changed to GC in CpG-B (DNA TGCTGCTTTTGTGCTTTTGTGCTT; listed as DNA, chemistry not given here)”, the “reversal of suppressive function of CD4+ Treg cells after pretreatment” value (CD4+ Treg cells) is reported as “lacked any discernible effect”.

For “Poly-C10: Poly-C oligonucleotide with the same protected phosphorothioate backbone (DNA dC*dC*dC*dC*dC*dC*dC*dC*dC*dC)”, the “reversal … of naive CD4+ T cell proliferation” value [2] was “failed to reverse the suppressive function of Treg cells; also recorded: lacked the ability to reverse the suppressive activity of Treg cells”.

“C4G1: a single guanosine plus other nucleotides with protected phosphorothioate linkages (DNA dC*dC*dG*dC*dC)” was tested, and the “reversal … of naive CD4+ T cell proliferation” value [2] was “found to reverse the suppressive activity of Treg cells”.

In the case of “G5: unprotected five guanosines with a regular phosphodiester backbone (DNA GGGGG; unmodified DNA)”, the “reversal … of naive CD4+ T cell proliferation” value [2] is reported as “failed to reverse the suppressive activity of Treg cells”.

flagellin was tested, and the “restoration” value [1] was “failed to restore the proliferation of naive CD4^+ T cells”.
